Series [1] concerns pseudotyped viruses expressing SARS-CoV-2 spike proteins (Wuhan-Hu-1).
A further series deals with HEK 293T-hACE2 cells. The series can be described thus: Cytotoxicity assay (MTS). Particulars: 1-50 μg/mL, 24 h; hACE2-expressing HEK293T cells; O.D. 490 nm; 4-6 samples.
Series [2] relates to pseudotyped SARS-CoV-2 viruses in lung epithelial A549 cells. In kind it is cell-based. Conditions: 25 μg/mL.
Series [3] concerns pseudotyped SARS-CoV-2 viruses in intestinal epithelial Caco-2 cells. Particulars: 25 μg/mL.

Where a SMILES comes first, the peptide text is derived from it. Bridges are numbered along the chain shown (N, C = ends). Where no end group is shown, it is not given here.

Consider “HBD6 (FFDEKCNKLKGTCKNNCGKNEELIALCQKSLKCCRTIQPCGSIID; ends and bridges not checked; cysteine pairing not given here; UniProt Q8N104 21-65, looked up)”, for which the “anti-SARS-CoV-2 activity (in words)” value in series [1] is reported as “did not effectively inhibit viral infection”.

Regarding HD6, the “anti-SARS-CoV-2 activity (in words)” value in series [1] is “only blocked SARS-CoV-2 infection at the highest concentration tested”. In addition, the “cytotoxicity (cell viability, MTS, in words)” value in the series with HEK 293T-hACE2 cells is recorded as “not cytotoxic”.

On to `CC[C@H](C)[C@@H]1NC(=O)[C@H](CCC(=O)O)NC(=O)[C@@H]2CSSC[C@@H]3NC(=O)[C@H](Cc4ccc(O)cc4)NC(=O)[C@@H](NC(=O)[C@@H](NC(=O)[C@H](C)N)[C@@H](C)O)CSSC[C@@H](C(=O)N[C@@H](CCCNC(=N)N)C(=O)O)NC(=O)[C@H](CSSC[C@H](NC(=O)[C@H](CCCNC(=N)N)NC(=O)CNC(=O)[C@H]([C@@H](C)O)NC(=O)[C@H](CCCNC(=N)N)NC3=O)C(=O)N[C@@H](C)C(=O)N[C@@H]([C@@H](C)O)C(=O)N[C@@H](CCCNC(=N)N)C(=O)N[C@@H](CCC(=O)O)C(=O)N[C@@H](CO)C(=O)N[C@@H](CC(C)C)C(=O)N[C@@H](CO)C(=O)NCC(=O)N[C@@H](C(C)C)C(=O)N2)NC(=O)[C@H](CC(C)C)NC(=O)[C@H](CCCNC(=N)N)NC(=O)[C@H](Cc2ccc(O)cc2)NC(=O)[C@H](CC(C)C)NC(=O)[C@H](CCCNC(=N)N)NC(=O)CNC(=O)[C@H](CO)NC1=O` [HD5] (H-ATCYCRTGRCATRESLSGVCEISGRLYRLCCR-OH; disulfide 3-31, 5-20, 10-30 (inferred); N-terminus and C-terminus assumed), for which the “anti-SARS-CoV-2 activity in A549 cells (in words)” value in series [2] is recorded as “exhibited anti-SARS-CoV-2 activity”. Besides, in series [1], the “post-entry effect on infection (in words)” value is recorded as “None of the tested defensins affected infection after viral entry”, the “protection by pre-treatment of cells (in words)” value is “partially blocked viral infection” and the “suppression of SARS-CoV-2 infection” value is on record as 60%. In addition, the “inhibition of the earlier Wuhan strain” value in series [1] (pseudotyped viruses expressing spike proteins (Wuhan-Hu-1, 48 h, 50 μg/mL)) was 96%. In addition, in series [3], the “anti-SARS-CoV-2 activity in Caco-2 cells (in words)” value is listed as “exhibited anti-SARS-CoV-2 activity”. Further, in the series on HEK 293T-hACE2 cells, the “cytotoxicity (cell viability, MTS, in words)” value is given as “not cytotoxic”.

Turning to “HNP4 (VCSCRLVFCRRTELRVGNCLIGGVSFTYCCTRV; ends and bridges not checked; cysteine pairing not given here; UniProt P12838 64-96, looked up)”, the “anti-SARS-CoV-2 activity (in words)” value in series [1] was “substantially less potent”.

For “HBD5 (GLDFSQPFPSGEFAVCESCKLGRGKCRKECLENEKPDGNCRLNFLCCRQRI; ends and bridges not checked; cysteine pairing not given here; UniProt Q8NG35 28-78, looked up)”, in series [1], the “anti-SARS-CoV-2 activity (in words)” value was “did not effectively inhibit viral infection”.

B1: pro-HD5 (protein, UniProt Q01523 20-94, looked up)
pro-form: ESLQERADEATTQKQSGEDNQDLAISFAGNGLSALRTSGSQARATCYCRTGRCATRESLSGVCEISGRLYRLCCR
modifications: pro-form
Consider B1, for which, in series [1], the “anti-SARS-CoV-2 activity (in words)” value is on record as “no anti-SARS-CoV-2 activity”.

The record behind these values is paper PMC8310277 (Viruses, 2021).
